The results in this text go back to patent US9695181B2, “Hydroximic acid derivatives and medical applications therof” (Double Rider Medicine Co., LTD., priority 2013, dated 2017).

Common to all, as to type: biochemical
The target in assay [1] is KDR (VEGFR2) protein tyrosine kinase (Homo sapiens (Human), UniProt P35968). Briefly: Inhibition of KDR (VEGFR2) protein tyrosine kinase substrate phosphorylation, ELISA. Particulars: for IC50: ELISA, ATP 5 μM, * average of three experiments ± SD, ** one experiment. As for the experimental part: Kinase reaction substrate Poly(Glu, Tyr)4:1 (SIGMA);
(§1) (1) Kinase reaction substrate Poly(Glu,Tyr)4:1 was diluted to 20 µg/ml with potassium ion-free PBS, and enzyme labeled plate was coated by the substrate, reacted at 37° C. for 12-16 h, and then the liquid in holes was removed.
(§2) (2) Enzyme labeled plate was washed with T-PBS for 10 min three times.
(§3) (3) Enzyme labeled plate was dried at 37° C. in a dryer.
(§4) (4) The tested samples were added into holes of the coated enzyme labeled plate:
The tested samples was firstly formulated to be a 10^−2 M stock solution in DMSO, subpackaged and storaged at −20° C., and then diluted to required concentration with reaction buffer before use, added into the experiment holes to reach corresponding final concentration in a 100 μL reaction system. Meanwhile, positive control holes were created, and added with positive control compound Su11248.
(§5) (5) Adding ATP and the tested tyrosine kinase:
(§6) ATP solution (final concentration 5 μM) diluted with reaction buffer was added, and then tested tyrosine kinase diluted with reaction buffer was added. Total volume of the reaction system was 100 μL. Meanwhile, negative control holes and enzyme-free control holes were created.
(6) The reaction systems were placed in a wet box, reacted at 37° C. on a shaking table for 1 hour under a condition that light was prohibited, and after the reaction, the plate was washed with T-PBS for three times.
(7) Antibody PY99 100 μL/hole was added, reacted at 37° C. on a shaking table for 30 minutes. The plate was washed for three times with T-PBS.
(§7) (8) Horseradish peroxidase labeled Sheep anti mouse IgG 100 μL/hole was added, and reacted at 37° C. on a shaking table for 30 minutes. The plate was washed for three times with T-PBS.
(§8) (9) OPD coloring solution 100 μL/hole was added, and reacted at room temperature for 1-10 minutes under a condition that light was prohibited.
(§9) (10) 2M H2SO4 50 μL was added to terminate the reaction, and value A490 was measured by tunable wavelength type micro plate (Molecular Devices SPECTRAMAX190).
(§10) (11) The inhibition rate of the sample was obtained by the following equation:
(§11) [formula] Experimental Result

The target of assay [2] is PDGFR-β (Platelet-Derived Growth Factor Receptor β) protein tyrosine kinase (Homo sapiens (Human), UniProt P09619). Briefly: Inhibition of PDGFR-β protein tyrosine kinase substrate phosphorylation, ELISA. To be noted: for IC50: ELISA, ATP 5 μM, * average of three experiments ± SD, ** one experiment; for inhibition of the activity of PDGFR-β tyrosine kinase, conclusion in words: at the molecular level. As for the experimental part: Embodiment 19: Inhibition of Compound IIa, IIb, IIc and IId on the Activity of Catalyzing Substrate Phosphorylation of PDGFR-β (Platelet-Derived Growth Factor Receptor β) Protein Tyrosine Kinase at the Molecular Level: Enzyme-Linked Immunosorbent Assay (ELISA)
Tyrosine kinase PDGFR-β (MILLIPORE);
Kinase reaction substrate Poly(Glu,Tyr)4:1 (SIGMA);
as §1, §2, §3, §4
The tested samples were firstly formulated to be a 10^−2 M stock solution in DMSO, subpackaged and storaged at −20° C., and then diluted to required concentration with reaction buffer before use, added into the experiment holes to reach corresponding final concentration in a 100 μL reaction system. Meanwhile, positive control holes were created, and positive control compound Su11248 was added.
as §5, §6
(6) The reaction system were placed in a wet box, reacted at 37° C. on a shaking table for 1 hour under a condition that light was prohibited, and after the reaction, the plate was with T-PBS washed for three times.
(7) Antibody PY99 100 μL/hole was added, and reacted at 37° C. on a shaking table for 30 minutes. The plate was washed for three times with T-PBS.
as §7, §8, §9, §10, §11

For another assay, the target named is Human HDAC1 (Homo sapiens (Human), UniProt Q13547). Briefly: Inhibition of catalyzing activity of histone deacetylase 1 (HDAC1), fluorescence detection. Particulars: for IC50: substrate Ac-Lys-Tyr-Lys(Ac)-AMC, * average of three experiments ± SD, ** one experiment. The procedure: Human HDAC1, obtained by utilizing baculovirus expression system;
Substrate, Ac-Lys-Tyr-Lys (Ac)-AMC;
Enzymatic activity was tested in 96-well or 384-well flat microwell plate by fluorescence detection and taking Ac-Lys-Tyr-Lys(Ac)-AMC as substrate. The tested samples was firstly formulated to be a 10^−2 M stock solution in DMSO, subpackaged and storaged at −20° C., and then diluted to required concentration with reaction buffer before use. […] The initial reaction speed was calculated by detecting the change of fluorescence signal with time.

Chain of Human HDAC1 (Q13547 whole entry): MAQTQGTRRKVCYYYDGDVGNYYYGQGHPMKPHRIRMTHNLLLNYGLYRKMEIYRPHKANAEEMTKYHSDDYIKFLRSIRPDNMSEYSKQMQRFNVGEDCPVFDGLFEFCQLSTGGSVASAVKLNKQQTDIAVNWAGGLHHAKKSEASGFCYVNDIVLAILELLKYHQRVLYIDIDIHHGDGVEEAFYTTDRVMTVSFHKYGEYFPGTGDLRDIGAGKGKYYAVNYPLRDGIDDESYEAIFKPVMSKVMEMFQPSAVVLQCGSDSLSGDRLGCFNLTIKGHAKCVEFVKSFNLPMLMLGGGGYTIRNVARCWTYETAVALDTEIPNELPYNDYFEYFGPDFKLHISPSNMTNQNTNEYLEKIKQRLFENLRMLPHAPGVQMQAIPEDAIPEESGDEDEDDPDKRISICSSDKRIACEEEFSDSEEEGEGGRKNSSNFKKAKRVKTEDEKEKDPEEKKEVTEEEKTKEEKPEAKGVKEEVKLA
Chain of PDGFR-β (Platelet-Derived Growth Factor Receptor β) protein tyrosine kinase (P09619 33-1106): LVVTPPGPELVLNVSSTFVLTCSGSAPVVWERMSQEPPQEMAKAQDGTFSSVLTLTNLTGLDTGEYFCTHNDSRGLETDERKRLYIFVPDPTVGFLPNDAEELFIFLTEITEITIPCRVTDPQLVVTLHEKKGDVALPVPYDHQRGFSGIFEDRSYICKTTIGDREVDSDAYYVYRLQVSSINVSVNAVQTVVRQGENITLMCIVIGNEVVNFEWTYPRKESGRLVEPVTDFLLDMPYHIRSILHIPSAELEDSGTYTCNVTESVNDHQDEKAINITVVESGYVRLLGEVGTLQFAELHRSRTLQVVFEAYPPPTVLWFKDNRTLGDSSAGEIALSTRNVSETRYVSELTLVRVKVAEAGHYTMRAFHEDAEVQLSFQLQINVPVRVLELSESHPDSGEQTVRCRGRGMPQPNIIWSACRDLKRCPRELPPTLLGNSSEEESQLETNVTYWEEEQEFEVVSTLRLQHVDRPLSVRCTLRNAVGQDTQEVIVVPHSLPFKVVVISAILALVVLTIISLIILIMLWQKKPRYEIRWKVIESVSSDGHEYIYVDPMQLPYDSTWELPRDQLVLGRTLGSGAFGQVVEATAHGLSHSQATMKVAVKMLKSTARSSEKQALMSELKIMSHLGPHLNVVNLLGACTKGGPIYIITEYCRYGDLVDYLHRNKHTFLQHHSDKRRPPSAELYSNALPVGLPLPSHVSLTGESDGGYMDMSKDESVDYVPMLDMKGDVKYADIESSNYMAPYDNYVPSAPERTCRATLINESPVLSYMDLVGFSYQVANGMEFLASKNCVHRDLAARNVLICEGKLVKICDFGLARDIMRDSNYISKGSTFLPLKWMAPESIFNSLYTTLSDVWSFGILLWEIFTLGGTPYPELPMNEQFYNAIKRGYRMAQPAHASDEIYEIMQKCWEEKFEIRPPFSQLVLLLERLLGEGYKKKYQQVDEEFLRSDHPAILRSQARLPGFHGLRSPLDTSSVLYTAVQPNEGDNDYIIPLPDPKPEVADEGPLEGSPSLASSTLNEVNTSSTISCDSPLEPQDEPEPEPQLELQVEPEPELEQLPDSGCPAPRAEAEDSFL
Chain of KDR (VEGFR2) protein tyrosine kinase (P35968 20-1356, species assumed): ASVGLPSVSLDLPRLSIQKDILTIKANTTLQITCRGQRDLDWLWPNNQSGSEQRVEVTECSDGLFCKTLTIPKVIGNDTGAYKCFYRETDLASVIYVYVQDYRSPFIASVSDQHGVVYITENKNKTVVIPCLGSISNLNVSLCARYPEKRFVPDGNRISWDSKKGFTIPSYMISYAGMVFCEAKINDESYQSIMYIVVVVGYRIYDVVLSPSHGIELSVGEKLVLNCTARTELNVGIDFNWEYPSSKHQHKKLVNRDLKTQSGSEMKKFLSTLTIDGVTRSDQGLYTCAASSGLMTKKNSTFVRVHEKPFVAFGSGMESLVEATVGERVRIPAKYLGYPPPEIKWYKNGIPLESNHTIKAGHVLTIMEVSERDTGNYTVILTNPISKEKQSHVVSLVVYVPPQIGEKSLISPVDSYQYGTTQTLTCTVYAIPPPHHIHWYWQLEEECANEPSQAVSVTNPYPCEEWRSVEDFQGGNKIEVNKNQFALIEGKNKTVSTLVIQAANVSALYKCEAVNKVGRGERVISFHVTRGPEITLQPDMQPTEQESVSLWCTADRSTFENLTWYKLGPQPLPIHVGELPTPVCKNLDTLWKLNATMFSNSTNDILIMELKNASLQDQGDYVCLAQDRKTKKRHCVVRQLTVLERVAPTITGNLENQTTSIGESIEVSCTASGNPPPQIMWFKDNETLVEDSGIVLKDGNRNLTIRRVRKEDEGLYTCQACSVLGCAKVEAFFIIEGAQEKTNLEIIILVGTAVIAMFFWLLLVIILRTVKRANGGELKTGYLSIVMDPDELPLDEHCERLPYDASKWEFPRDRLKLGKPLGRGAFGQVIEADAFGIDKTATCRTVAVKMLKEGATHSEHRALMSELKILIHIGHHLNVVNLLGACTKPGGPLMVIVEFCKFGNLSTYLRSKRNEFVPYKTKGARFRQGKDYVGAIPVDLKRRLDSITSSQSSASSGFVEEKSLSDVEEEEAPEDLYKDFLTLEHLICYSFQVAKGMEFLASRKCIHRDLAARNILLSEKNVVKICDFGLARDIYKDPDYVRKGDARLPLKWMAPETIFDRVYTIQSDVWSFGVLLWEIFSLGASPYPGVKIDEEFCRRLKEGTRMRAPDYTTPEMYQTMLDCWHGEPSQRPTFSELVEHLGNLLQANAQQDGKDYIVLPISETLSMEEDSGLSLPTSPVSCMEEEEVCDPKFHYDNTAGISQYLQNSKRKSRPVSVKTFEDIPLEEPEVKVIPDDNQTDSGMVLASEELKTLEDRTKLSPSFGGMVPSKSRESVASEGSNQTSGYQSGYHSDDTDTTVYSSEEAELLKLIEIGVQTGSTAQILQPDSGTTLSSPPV

For `Cc1cccc(NC(=O)Nc2ccc(-c3nn(CCCN(C)CCCC(=O)NO)c4ncnc(N)c34)cc2)c1` [Compound IId], the half-inhibitory concentration (IC50) in assay [1] was determined as 1190 nM; in assay [2], 99.9 nM; against Human HDAC1, 13800 nM. In addition, in assay [2], the “inhibition of the activity of PDGFR-β tyrosine kinase, conclusion in words” value is on record as “well inhibit”.

For the molecule `Cc1ccc(F)c(NC(=O)Nc2ccc(-c3nn(CCCCCCCC(=O)NO)c4ncnc(N)c34)cc2)c1` [Compound IIb], the IC50 in assay [1] turned out to be 2.2 ± 0.9 nM; in assay [2], 0.5 ± 0.1 nM; on Human HDAC1, 470 ± 70 nM.

For `Cc1cccc(NC(=O)Nc2ccc(-c3nn(CCCCCCCC(=O)NO)c4ncnc(N)c34)cc2)c1` [Compound IIa], the half-inhibitory concentration (IC50) came out at 3 ± 1 nM in assay [1], 2.9 ± 1.5 nM in assay [2] and 1090 ± 210 nM at Human HDAC1.

In the case of `Cc1cccc(NC(=O)Nc2ccc(-c3nn(CCCN(C)CCCC(=O)NO)c4ncnc(N)c34)cc2)c1` [Compound IIc], the figures for the IC50 (in assay [1]; in assay [2]; against Human HDAC1) were 572 nM, 146 nM and 8650 nM, respectively. In addition, the “inhibition of the activity of VEGFR2 tyrosine kinase, conclusion in words” value in assay [1] (at the molecular level) is recorded as “well inhibit”. Besides, the “inhibition of the activity of PDGFR-β tyrosine kinase, conclusion in words” value in assay [2] is recorded as “well inhibit”. Moreover, on Human HDAC1 (at the molecular level), the “inhibition of the activity of HDAC1, conclusion in words” value was “well inhibit”.
